Drawing on patent US20220378773A1, “METHODS FOR TREATING LEUKEMIA AND USE OF A LEUKEMIC STEM CELL SIGNATURE TO PREDICT CLINICAL SENSITIVITY TO THERAPIES” (CELGENE CORPORATION, priority 2019, published 2022), this text covers stability in formulation for 1 compound.

The format of the series is physicochemical. The text has this:
Formulation: 5% NMP/45% polyethylene glycol (PEG) 400/50% Saline; NMP—Catalogue no. 69118 (new no. M79603-1L), Fluka; PEG400—Catalogue no. 81172-1L, Fluka; Saline—0.9% sodium chloride.
Preparation: Weigh the desired amount of compound in glass vial. Add NMP and vortex. Make sure that entire compound is wet. Add PEG400 and vortex until clear solution without particulates. Add saline slowly and mix thoroughly for about a minute with hand held homogenizer with disposable tip.

On to `O=C1CCC(N2Cc3cc(CNC(=O)C(F)(F)c4ccc(Cl)cc4)ccc3C2=O)C(=O)N1` (stereo not shown) [Compound D, 2-(4-chlorophenyl)-N-((2-(2,6-dioxopiperidin-3-yl)-1-oxoisoindolin-5-yl)methyl)-2,2-difluoroacetamide], for which the stability in formulation entry is on record as “not stable in the formulation over time”.
